The text below walks through data of patent publication US11958863B2, “Binding competitors for use in macrophilin-binding pharmaceutical assays and methods of use thereof” (Siemens Healthcare Diagnostics Inc., priority 2018, dated 2024).

For experiment [1], the system named is tacrolimus assay antibody (1E2 Clone). The experiment is described as follows: Cross-reactivity with tacrolimus assay antibody. Particulars: for Cross-reactivity with tacrolimus assay antibody (in words): 1E2 clone, compared with the '518 patent analog; for % Cross-Reactivity: tacrolimus assay antibody 1E2 clone. Format: binding. As to the method: (§1) Table 2 indicates the cross-reactivities detected for the various displacers of the present disclosure with the everolimus assay antibody (155-M1), while Table 3 indicates the cross-reactivities detected for the various displacers of the present disclosure with the tacrolimus assay antibody (1E2 clone).
Next, the cross-reactivity of each of the analogs used in the everolimus assay was tested with the antibody used in the tacrolimus assay (Table 3). While efforts may be made to minimize reagent carryover from the everolimus assay to the tacrolimus assay, an automated instrument may run both everolimus and tacrolimus (or sirolimus) assays simultaneously. Therefore, due to the use of a large amount of displacer (tacrolimus analogs) present in the everolimus assay, the displacer could be carried into the tacrolimus assay, and this would cause a falsely elevated signal in the tacrolimus assay if cross-reaction were observed.

Experiment [2] concerns everolimus assay antibody (155-M1 Clone). The experiment is described as follows: Cross-reactivity with everolimus assay antibody. The settings on record: for % Cross-Reactivity: everolimus assay antibody 155-M1 clone. The experiment is classed as binding, mouse. As to the method: (§2) The automated DIMENSION® assay system (Siemens Healthcare Diagnostics Inc., Tarrytown, NY), the everolimus (EVRO) assay method uses an immunoassay technique in which free and everolimus-bound antibody-enzyme conjugate is separated using magnetic particles. The assay antibody used for this assay is a mouse monoclonal antibody (cell line: 155-M1). The assay was performed using a method specific FLEX® reagent cartridge (Siemens Healthcare Diagnostics Inc., Tarrytown, NY). The FLEX® reagent cartridge contains a pretreatment reagent, antibody-β-galactosidase conjugate, everolimus analog immobilized on chromium dioxide particles, chlorophenol red β-d-galactopyranoside (CPRG) substrate, and diluent to hydrate the tablets. To perform the EVRO assay, a sample cup (or SSC) containing the whole blood sample to be analyzed and an EVRO FLEX® reagent cartridge were placed appropriately on the DIMENSION® system. The DIMENSION® system mixed and lysed the whole blood sample in the presence of the pretreatment reagent that contains detergents and a displacer (FK506 or FK506 analogs as described previously). This reagent contains a displacer which acts to displace everolimus in the sample from endogenous binding proteins (immunophilins such as FKBPs, etc.). The lysed sample was then mixed with the antibody enzyme conjugate. The everolimus present in the sample was bound by the everolimus antibody. Magnetic particles coated with everolimus analog were added to bind free (unbound) antibody-enzyme conjugate. The reaction mixture was then separated magnetically. Following separation, the supernatant containing the everolimus-antibody-enzyme complex was transferred to a cuvette and mixed with the substrate, chlorophenol red β-d-galactopyranoside (CPRG). β-galactosidase catalyzes the hydrolysis of CPRG to produce chlorophenol red (CPR) that absorbs light maximally at 577 nm. The change in absorbance at 577 nm due to the formation of CPR is directly proportional to the amount of everolimus in the patient's sample and is measured using a bichromatic (577 nm, 700 nm) rate technique.
as §1

Experiment [3] relates to endogenous binding proteins (immunophilins such as FKBPs). The experiment is described as follows: Everolimus (EVRO) DIMENSION immunoassay standard curves with displacers. Particulars: whole blood sample. As to the method:
as §2
The assay was conducted in the absence of any displacer as well as in the presence of the following displacers: tacrolimus (FK506, as represented by Formula I), FK506 Ester (disclosed in U.S. Pat. No. 7,186,518), FK506 C24 succinate (as represented by Formula VII), Reduced FK506 (as represented by Formula IV), FK506 22-oxime-32-isocyanatoacetatethyl ester (as represented by Formula VI), and FK506 oxime (as represented by Formula V).
The ability of the FK analogs to displace everolimus drug in the everolimus assay is a function of their FKBP (macrophilin) binding. So the curve size after adding the displacer indicates the ability of their FKBP binding: the larger the curve size, the better the binding.

The structures appear in SMILES notation.

As to `C=CC[C@@H]1/C=C(\C)C[C@H](C)C[C@H](OC)[C@H]2O[C@@](O)(C(=O)C(=O)N3CCCC[C@H]3C(=O)O[C@H](/C(C)=C/[C@@H]3CC[C@@H](O)[C@H](OC)C3)[C@H](C)[C@@H](OC(=O)CCC(=O)O)CC1=O)[C@H](C)C[C@@H]2OC` [24-Succinate FK506, FK506 C24 succinate], in experiment [1], the “Cross-reactivity with tacrolimus assay antibody (in words)” value is given as “much lower cross-reactivities”. The “% Cross-Reactivity” value was 13.3% in experiment [1] and 0.01% in experiment [2]. Besides, the “Everolimus standard curve signal with displacer” value (from here on “Everolimus standard curve signal”) was 16 in experiment [3] (BV 0 ng/mL everolimus); 71 in experiment [3] (BV 5.5 ng/mL everolimus); 108 in experiment [3] (BV 11.2 ng/mL everolimus); 145 in experiment [3] (BV 21.9 ng/mL everolimus); 157 in experiment [3] (BV 34.3 ng/mL everolimus).

As to `CCC[C@@H]1CC(C)C[C@H](C)C[C@H](OC)[C@H]2O[C@@](O)(C(=O)C(=O)N3CCCC[C@H]3C(=O)O[C@H](C(C)C[C@@H]3CC[C@@H](OC(=O)NCC(=O)OCC)[C@H](OC)C3)[C@H](C)[C@@H](O)CC1=NOCC(=O)O)[C@H](C)C[C@@H]2OC` (stereo partly drawn) [FK-506-1], the “Cross-reactivity with tacrolimus assay antibody (in words)” value in experiment [1] is on record as “much lower cross-reactivities”. Moreover, the “% Cross-Reactivity” value in experiment [1] was found to be 1.5%; in experiment [2], 0.02%. For the same compound, the “Everolimus standard curve signal” value in experiment [3] (BV 0 ng/mL everolimus) stood at 18; in experiment [3] (BV 5.5 ng/mL everolimus) it was 68; in experiment [3] (BV 11.2 ng/mL everolimus), 102; in experiment [3] (BV 21.9 ng/mL everolimus) it was 140; in experiment [3] (BV 34.3 ng/mL everolimus) it was 154.

Take `C=CC[C@@H]1/C=C(\C)C[C@H](C)C[C@H](OC)[C@H]2O[C@@](O)(C(=O)C(=O)N3CCCC[C@H]3C(=O)O[C@H](/C(C)=C/[C@@H]3CC[C@@H](O)[C@H](OC)C3)[C@H](C)[C@@H](O)CC1=O)[C@H](C)C[C@@H]2OC` [FK506, Tacrolimus, reference compound]: the “% Cross-Reactivity” value in experiment [1] is given as 100%; in experiment [2] it was 0.01%. Besides, in experiment [2] (155-M1 clone), the “Cross-reactivity with everolimus assay antibody (in words)” value is recorded as “substantially no cross-reactivity”. Besides, the “Everolimus standard curve signal” value stood at 17 in experiment [3] (BV 0 ng/mL everolimus); 67 in experiment [3] (BV 5.5 ng/mL everolimus); 104 in experiment [3] (BV 11.2 ng/mL everolimus); 143 in experiment [3] (BV 21.9 ng/mL everolimus); 156 in experiment [3] (BV 34.3 ng/mL everolimus).
